Source: patent publication US7223834B2, “Assays and peptide substrate for determining aggrecan degrading metallo protease activity” (Bristol-Myers Squibb Pharma Company, priority 1997, dated 2007)

Test system: ADMP
Conditions: GLU to GLN substitution at position 373 (P1)

## QTVTWPDMELPLPRNITEGQARGSVILTVK-Biotin [30-IP]
  mode of inhibition of the enzyme: competitive inhibitor
